# Values of other authors, collected in patent US11702451B2, “Method for synthesizing amanitins” (Heidelberg Pharma Research GmbH, priority 2017, dated 2023).
# Biological target: DNA-dependent RNA polymerase II (Homo sapiens, UniProt P24928)
# Settings: background statement, no method given; read-out: KD of the complex between amanitin and RNA-polymerase II
substance,measurement,value
amanitin,Kd,3 nM
